Test results taken from ChEMBL document CHEMBL1857833, “Screening and optimization of specific chemical series against human African Trypanosomiasis (HAT)”.
≈ marks a conversion by molar mass, not a printed value. Where “and” joins values, the source holds several entries; their conditions need not be identical. Equal values may be shown once.

Legend:
in vitro [1] = details: mouse, t (1 / 2)
Description: DNDI: half life in mouse liver microsomes at a concentration of 1uM

[2] = DNDI: in vitro intrinsic clearance in human liver microsomes at a concentration of 10uM; assay type: ADME, Microsome
[3] = mouse, microsomes, 1 µM
Description: DNDI: in vitro intrinsic clearance in mouse liver microsomes at a concentration of 1uM

[4] = DNDI: in vitro intrinsic clearance in mouse liver microsomes at a concentration of 10uM; assay type: ADME, Microsome; details: read-out: CLint in vitro
Trypanosoma brucei [5] = experiment: DNDI: Inhibition of Human African Trypanosomiasis, SBRI 427, in vitro; assay type: functional, organism-based
[6] = DNDI: Lipophilicity measured in Chromatographic hydrophobicity index (CHI) assay, pH 7.4; assay type: physicochemical; details: buffer
[7] = DNDI: half life in mouse liver microsomes at a concentration of 10uM; assay type: ADME, Microsome
Trypanosoma brucei [8] = experiment: DNDI: Inhibition of Human African Trypanosomiasis, EATRO 110, in vitro; assay type: functional, organism-based
[9] = (§1) DNDI: Cytotoxicity against L929 mouse fibroblasts, CYTO-SP, 24 hour; assay type: toxicity, cell-based; details: mouse, L929 mouse fibroblasts
L929 [10] = experiment: as §1; assay type: toxicity, cell-based; details: l929
[11] = DNDI: half life in human liver microsomes at a concentration of 10uM; assay type: ADME, Microsome
[12] = DNDI: Solubility in phosphate buffered saline at pH7.4 measured by optical density (turbidimetry) at room temperature (OD-RT); assay type: physicochemical; details: pH 7.4
Trypanosoma brucei [13] = experiment: DNDI: Inhibition of Human African Trypanosomiasis, Cross 22, in vitro; assay type: functional, organism-based
[14] = (§2) DNDI: Cytotoxicity against L929 mouse fibroblasts, 72 hour.; assay type: toxicity, cell-based; details: mouse, L929 mouse fibroblasts
[15] = DNDI: Cytotoxicity against L-6 rat myoblasts from skeletal muscle cells; assay type: toxicity, cell-based, L6; details: L-6 rat skeletal muscle myoblasts
[16] = DNDI: Solubility in phosphate buffered saline at pH7.4 measured by nephelometry at room temperature (NEPH-RT); assay type: physicochemical; details: pH 7.4
Trypanosoma cruzi = experiment: DNDI: Inhibition of Chagas Disease parasite Trypanosoma cruzi (Tulahuen LacZ, Clone C4), in vitro.; assay type: functional, organism-based
[17] = system: Trypanosoma brucei rhodesiense; experiment: DNDI: Inhibition of Human African Trypanosomiasis (HAT), STIB 900, in vitro; assay type: functional, organism-based
Trypanosoma brucei [18] = experiment: DNDI: Mean survival time in days (MSD) of mice after intraperitoneal injection of Human African Trypanosomiasis (HAT), EATRO 110, in vivo at 20 mg/kg/day for 4 days.; assay type: functional, Mus musculus
Leishmania donovani = experiment: DNDI: Inhibition of formation of Leishmania donovani (strain MHOM/ET/67/L82) axenic amastigotes, in vitro.; assay type: functional, organism-based
Trypanosoma brucei [19] = experiment: DNDI: Mean survival time in days (MSD) of mice after intraperitoneal injection of Human African Trypanosomiasis (HAT), EATRO 110, in vivo at 5 mg/kg/day for 4 days.; assay type: functional, Mus musculus
Plasmodium falciparum = experiment: DNDI: Inhibition of the malaria parasite Plasmodium falciparum, in vitro; assay type: functional, organism-based; details: K1
in vitro [20] = details: human, microsomes, CLint in vitro
Description: DNDI: in vitro intrinsic clearance in human liver microsomes at a concentration of 1uM

in vitro [21] = details: human, microsomes, t (1 / 2)
Description: DNDI: half life in human liver microsomes at a concentration of 1uM

MDR1 (ABCB1) [22] = target: T1, MDR1 (ABCB1) (Homo sapiens, UniProt P08183); experiment: DNDI: Efflux ratio for permeability from basolateral to apical side to apical to basolateral side of MDCK cells transfected with human MDR1; assay type: ADME, cell-based, Canis lupus familiaris; details: dog, read-out: B-A/A-B
T1 sequence (P08183 whole entry): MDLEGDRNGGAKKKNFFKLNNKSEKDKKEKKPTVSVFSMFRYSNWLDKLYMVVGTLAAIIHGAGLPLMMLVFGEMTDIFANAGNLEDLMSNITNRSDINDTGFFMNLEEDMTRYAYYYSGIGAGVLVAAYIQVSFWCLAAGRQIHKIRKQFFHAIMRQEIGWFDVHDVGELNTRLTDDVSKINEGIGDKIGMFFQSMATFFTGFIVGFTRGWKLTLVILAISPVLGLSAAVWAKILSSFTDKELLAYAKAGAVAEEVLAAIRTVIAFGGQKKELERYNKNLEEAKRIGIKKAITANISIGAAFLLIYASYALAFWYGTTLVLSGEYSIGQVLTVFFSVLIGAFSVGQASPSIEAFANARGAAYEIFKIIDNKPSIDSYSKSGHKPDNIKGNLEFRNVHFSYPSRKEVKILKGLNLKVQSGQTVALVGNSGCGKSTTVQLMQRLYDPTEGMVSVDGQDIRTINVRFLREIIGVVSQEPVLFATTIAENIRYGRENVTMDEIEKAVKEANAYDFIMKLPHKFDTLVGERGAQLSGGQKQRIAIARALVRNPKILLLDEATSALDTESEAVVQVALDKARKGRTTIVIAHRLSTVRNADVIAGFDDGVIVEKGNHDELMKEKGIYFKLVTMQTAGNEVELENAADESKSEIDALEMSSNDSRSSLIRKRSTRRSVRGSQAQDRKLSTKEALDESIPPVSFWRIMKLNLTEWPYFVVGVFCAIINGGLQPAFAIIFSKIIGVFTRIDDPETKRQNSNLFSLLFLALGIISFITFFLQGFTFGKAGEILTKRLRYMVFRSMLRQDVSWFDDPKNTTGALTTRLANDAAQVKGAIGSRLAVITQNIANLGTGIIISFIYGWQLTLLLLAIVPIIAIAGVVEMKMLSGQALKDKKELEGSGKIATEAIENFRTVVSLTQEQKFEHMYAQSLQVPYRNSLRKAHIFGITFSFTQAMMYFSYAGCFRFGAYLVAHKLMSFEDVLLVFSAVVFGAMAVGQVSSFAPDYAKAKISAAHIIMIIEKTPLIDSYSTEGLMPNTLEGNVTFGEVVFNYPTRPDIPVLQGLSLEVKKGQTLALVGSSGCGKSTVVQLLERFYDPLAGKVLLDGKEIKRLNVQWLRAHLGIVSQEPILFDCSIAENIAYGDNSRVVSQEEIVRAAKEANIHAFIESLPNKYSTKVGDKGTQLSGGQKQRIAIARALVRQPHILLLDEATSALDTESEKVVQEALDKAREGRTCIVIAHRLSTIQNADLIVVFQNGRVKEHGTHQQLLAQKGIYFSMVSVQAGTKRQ

MDR1 (ABCB1) [23] = target: T1, MDR1 (ABCB1); experiment: DNDI: % of compound recovered from apical to basolateral permeability assay in MDCK cells transfected with human MDR1; assay type: ADME, cell-based, Canis lupus familiaris; details: dog
MDR1 (ABCB1) [24] = target: T1, MDR1 (ABCB1); experiment: DNDI: Apparent permeability from basolateral to apical side of the MDCK cell transfected with human MDR1 after 60 mins at a concentration of 3uM; assay type: ADME, cell-based, Canis lupus familiaris; details: dog
MDR1 (ABCB1) [25] = target: T1, MDR1 (ABCB1); experiment: DNDI: Apparent permeability from apical to basolateral side of the MDCK cell transfected with human MDR1; assay type: ADME, cell-based, Canis lupus familiaris; details: dog
MDR1 (ABCB1) [26] = target: T1, MDR1 (ABCB1); experiment: DNDI: % of compound recovered from basolateral to apical permeability assay in MDCK cells transfected with human MDR1; assay type: ADME, cell-based, Canis lupus familiaris; details: dog
[27] = DNDI: half-life in mouse S9 microsomes at a concentration of 1uM; assay type: ADME, subcellular, Liver, S9 fraction
[28] = DNDI: half-life in mouse S9 microsomes at a concentration of 10uM; assay type: ADME, subcellular, Liver, S9 fraction
L929 [29] = experiment: as §2; assay type: toxicity, cell-based; details: l929
[30] = Trypanosoma brucei, SBRI 427, read-out: IC50

SMILES | CLint in vitro [2] [µL/min/mg] | CLint in vitro [3] [µL/min/mg] | microsomal CLint at 10 µM [4] [µL/min/mg] | IC50 (Trypanosoma brucei [5]) | chromatographic logD [6] | half-life at 10 µM [7] [h] | IC50 at 24 h [9] [µg/mL] | half-life at 10 µM [11] [h] | solubility kinetic [12] [µM] | IC50 (Trypanosoma brucei [13]) [µg/mL] | IC50 at 72 h [14] [µg/mL] | solubility kinetic [16] [µM] | IC50 (Trypanosoma brucei [5]; [30]) [µg/mL] | half-life at 1 µM [27] [h] | half-life at 10 µM [28] [h] | also measured
CCOc1ccc(-c2nc(CNC3C[C@@H]4C[C@H]([C@H]3C)C4(C)C)co2)cc1 (stereo partly drawn) | 17 | 207 | 121 | 1.07 ug/ml [middle of 5 runs] | 5.22 | 0.4 | > 50 | 2.9 | 6.3 (≈ 2.23 µg/mL) | 1.72 (≈ 4.85 µM) | 3.51 (≈ 9.9 µM) | – | – | – | – | half-life at 1 µM (in vitro [1]; liver microsomes): 0.0667 h; IC50 (Trypanosoma brucei [8]): 1.16 µg/mL (≈ 3.27 µM); IC50 (L929 [10]): 28.6 µg/mL (≈ 80.7 µM)
CCCCCC(C)NCc1coc(-c2ccccc2OCC)n1 (stereo not drawn) | – | – | – | – | – | – | 27 (≈ 85.3 µM) | – | – | – | 7.79 (≈ 24.6 µM) | – | – | – | – | IC50 (L929 [10]): 38.6 µg/mL (≈ 122 µM)
O/N=C(\NCC1CC1)c1ccccc1-c1ccccc1 | 5 | 93 | 117 | – | 4.04 | 0.417 | > 50 | 10.6 | > 200 | – | > 10 | > 200 | 1.15 (≈ 4.32 µM) | – | – | half-life at 1 µM (in vitro [1]; microsomes): 0.15 h; IC50 [15]: 72.3 µg/mL (≈ 271 µM); IC50 (Trypanosoma cruzi): > 30 µg/mL; IC50 [17]: 8.1 µg/mL (≈ 30.4 µM); logD [6]: 3.96; MSD (Trypanosoma brucei [18]): 1 days; IC50 (Leishmania donovani): 32.3 µg/mL (≈ 121 µM); MSD (Trypanosoma brucei [19]): 4 days; IC50 (Plasmodium falciparum): 3.14 µg/mL (≈ 11.8 µM)
CCCCc1ccc(-c2nc(CNC3CCCCCC3)co2)cc1 | – | – | – | 0.18 µg/mL and 0.33 µg/mL | 5.49 | – | > 50 | – | – | 0.4 (≈ 1.23 µM) | 1.23 (≈ 3.77 µM) | 13 (≈ 4.24 µg/mL) | 0.36 (≈ 1.1 µM) | – | – | IC50 [15]: 2.85 µg/mL (≈ 8.73 µM); IC50 (Trypanosoma cruzi): 1.43 µg/mL (≈ 4.38 µM); IC50 [17]: 0.383 µg/mL (≈ 1.17 µM); MSD (Trypanosoma brucei [18]): 3.5 days; IC50 (Leishmania donovani): 10.1 µg/mL (≈ 30.8 µM); microsomal CLint at 1 µM (in vitro [20]): 18 µL/min/mg; half-life at 1 µM (in vitro [21]): 0.8 h; MSD (Trypanosoma brucei [19]): 4 days; IC50 (Plasmodium falciparum): 0.739 µg/mL (≈ 2.26 µM)
CCOc1ccc(-c2nc(CNC[C@@H]3CC[C@H]4C[C@@H]3C4(C)C)co2)cc1 | – | 86 | 35 | 1.47 µg/mL and 1.38 µg/mL | 5.5 | 1.35 | 45.2 (≈ 128 µM) | – | 0.8 (≈ 0.284 µg/mL) | 1.57 (≈ 4.43 µM) | 3.26 (≈ 9.2 µM) | – | 1.18 (≈ 3.33 µM) | – | – | efflux ratio (MDR1 (ABCB1) [22]): 0.8; half-life at 1 µM (in vitro [1]; liver microsomes): 0.167 h; recovery (MDR1 (ABCB1) [23]): 21%; Papp B→A at 1 h, 3 µM (MDR1 (ABCB1) [24]): 6.74 ×10⁻⁶ cm/s; Papp A→B (MDR1 (ABCB1) [25]): 8.16 ×10⁻⁶ cm/s; recovery (MDR1 (ABCB1) [26]): 42%; IC50 (Trypanosoma brucei [8]): 0.71 µg/mL (≈ 2 µM)
Fc1ccc(-c2cc3nc(-c4ccccc4)cc(NC4CCNC4)n3n2)cc1 (stereo not drawn) | – | – | – | – | – | – | – | – | – | – | 1.39 (≈ 3.72 µM) | – | 0.583 (≈ 1.56 µM) | 1.39 | 2.82 | –
Fc1ccc(-c2cc3nc(-c4ccccc4)cc(N4CCNCC4)n3n2)cc1 | – | – | – | – | 4.98 | – | – | – | – | – | 0.73 (≈ 1.95 µM) | 3 (≈ 1.12 µg/mL) | 0.422 (≈ 1.13 µM) | 1.28 | 3.68 | –
CCCCCC(C)NCc1coc(-c2ccc(OC(C)C)cc2)n1 (stereo not drawn) | 37 | 24 | 36 | – | 4.56 | 1.35 | > 50 | 1.3 | 12.5 (≈ 4.13 µg/mL) | – | 2.58 (≈ 7.81 µM) | – | 1.07 (≈ 3.24 µM) | – | – | half-life at 1 µM (in vitro [1]; microsomes): 0.583 h; IC50 (L929 [29]): 3.42 µg/mL (≈ 10.3 µM)
Fc1ccc(-c2cc3nc(-c4ccccc4)cc(NC4CCNCC4)n3n2)cc1 | – | – | – | – | 4.2 | – | – | – | – | – | 1.11 (≈ 2.86 µM) | 13 (≈ 5.04 µg/mL) | 0.555 (≈ 1.43 µM) | > 5.83 | > 5.83 | –
